Laboratory results taken from US20250197384A1, “AZOLE COMPOUND AND ANTIFUNGAL AGENT” (NIHON NOHYAKU CO., LTD., priority 2022, published 2025).
≈ marks a conversion by molar mass, not a printed value.

What was measured:
Format in all cases: cell-based
[1] = tested on: Candida albicans NBRC1270; assay: In vitro anti-Candida activity test; conditions: for minimum inhibitory concentration against various fungi (MIC) C. albicans / MIC: Table 22, 35° C. for 24 hr, alamar Blue, minimum concentration showing 80% or more inhibition; for MIC: Candida albicans, read-out: minimum inhibitory concentration against various fungi (MIC) C. albicans; for C. albicans (MIC): 80% or more inhibition, unit inferred
Protocol: Candida albicans NBRC1270 was used as the strain. The test fungi were cultured on a Sabouraud dextrose agar slant medium at 35° C. for 24 hr, and then suspended in sterilized saline. The number of cells in this suspension was counted using a hemocytometer, and the same suspension was adjusted to a cell concentration of 1.5×10^5 cells/mL, and this was used as an inoculum. Each compound was dissolved in dimethyl sulfoxide to a predetermined concentration, and diluted 50-fold with 0.165 M MOPS buffered RPMI 1640 liquid medium, and each diluted solution was dispensed into a 96-well microplate by each 100 μL. The inoculum was diluted 50-fold with 0.165 M MOPS buffered RPMI 1640 liquid medium containing 20% alamar Blue™, and the diluted solution was inoculated into the 96-well microplate containing the compound by each 100 μL (final inoculum amount 1.5×10^3 cells/mL). After static culture at 35° C. for 24 hr, the degree of color development of the alamar Blue™ was measured using a microplate reader (O.D. 570-595 nm), and the minimum concentration showing 80% or more inhibition was defined as the minimum inhibitory concentration (MIC).

[2] = tested on: Trichophyton rubrum NBRC6203; assay: In vitro anti-tinea fungus activity test (T. rubrum); conditions: Table 22, 27° C. for 5 days, alamar Blue, minimum concentration showing 80% or more inhibition; for MIC: Trichophyton rubrum, 120 h, read-out: minimum inhibitory concentration against various fungi (MIC) T. rubrum
Protocol: (§1) Trichophyton rubrum NBRC6203 and Trichophyton mentagrophytes TIMM2789 were used as the strains. The test fungi were cultured on a Sabouraud dextrose agar slant medium at 27° C. for 10-13 days, and then suspended in sterilized saline. The number of cells in this suspension was counted using a hemocytometer, and the same suspension was adjusted to a cell concentration of 2×10^6 conidia/mL, and this was used as an inoculum. Each compound was dissolved in dimethyl sulfoxide to a predetermined concentration, and diluted 50-fold with 0.165 M MOPS buffered RPMI 1640 liquid medium, and each diluted solution was dispensed into a 96-well microplate by each 100 μL. The inoculum was diluted 50-fold with 0.165 M MOPS buffered RPMI 1640 liquid medium containing 20% alamar Blue™, and the diluted solution was inoculated into the 96-well microplate containing the compound by each 100 μL (final inoculum amount 2×10^4 conidia/mL). After static culture at 27° C. for 3 days (Trichophyton mentagrophytes) or for 5 days (Trichophyton rubrum), the degree of color development of the alamar Blue™ was measured using a microplate reader (O.D. 570-595 nm), and the minimum concentration showing 80% or more inhibition was defined as the minimum inhibitory concentration (MIC).

[3] = tested on: Trichophyton mentagrophytes TIMM2789; assay: In vitro anti-tinea fungus activity test (T. mentagrophytes); conditions: Table 22, 27° C. for 3 days, alamar Blue, minimum concentration showing 80% or more inhibition; for MIC: Trichophyton mentagrophytes, 72 h, read-out: minimum inhibitory concentration against various fungi (MIC) T. mentagrophytes
Protocol: as §1

[4] = tested on: Aspergillus fumigatus TIMM0063; assay: In vitro anti-Aspergillus activity test; conditions: for minimum inhibitory concentration against various fungi (MIC) A. fumigatus / MIC: Table 22, 35° C. for 48 hr, alamar Blue, minimum concentration showing 80% or more inhibition; for MIC: Aspergillus fumigatus, read-out: minimum inhibitory concentration against various fungi (MIC) A. fumigatus; for A. fumigatus (MIC): 80% or more inhibition, unit inferred
Protocol: Aspergillus fumigatus TIMM0063 was used as the strain. The test fungi were cultured on a Potato dextrose agar slant medium at 35° C. for 4 days, and then sterilized saline containing 0.1% (v/v) Tween 80 was added to release the conidia. This conidial suspension was filtered through sterile gauze, and the number of conidia was counted using a hemocytometer. The same solution was adjusted to a conidial concentration of 1×10^6 conidia/mL, and this was used as an inoculum. Each compound was dissolved in dimethyl sulfoxide to a predetermined concentration, and diluted 50-fold with 0.165 M MOPS buffered RPMI 1640 liquid medium, and each diluted solution was dispensed into a 96-well microplate by each 100 μL. The inoculum was diluted 50-fold with 0.165 M MOPS buffered RPMI 1640 liquid medium containing 20% alamar Blue™, and the diluted solution was inoculated into the 96-well microplate containing the compound by each 100 μL (final inoculum amount 1.0×10^4 conidia/mL). After static culture at 35° C. for 48 hr, the degree of color development of the alamar Blue™ was measured using a microplate reader (O.D. 570-595 nm), and the minimum concentration showing 80% or more inhibition was defined as the minimum inhibitory concentration (MIC).

Structure (SMILES): N#C/C(=C1/SCC(c2ncc(Br)cc2Cl)S1)n1ccnc1 (racemic) [Compound No. 1]
- minimum inhibitory concentration against various fungi (MIC) C. albicans [1]: 100 ng/mL (≈ 0.25 µM)
- minimum inhibitory concentration against various fungi (MIC) T. rubrum [2]: ≤1 ng/mL
- minimum inhibitory concentration against various fungi (MIC) T. mentagrophytes [3]: ≤1 ng/mL
- minimum inhibitory concentration against various fungi (MIC) A. fumigatus [4]: 1.3 ng/mL (≈ 0.00325 µM)

Structure (SMILES): N#C/C(=C1/SCC(c2ncc(N)cc2Cl)S1)n1ccnc1 (racemic) [Compound No. 2]
- minimum inhibitory concentration against various fungi (MIC) C. albicans [1]: 1000 ng/mL (≈ 2.98 µM)
- minimum inhibitory concentration against various fungi (MIC) T. rubrum [2]: 10 ng/mL (≈ 0.0298 µM)
- minimum inhibitory concentration against various fungi (MIC) T. mentagrophytes [3]: 10 ng/mL (≈ 0.0298 µM)
- minimum inhibitory concentration against various fungi (MIC) A. fumigatus [4]: 10 ng/mL (≈ 0.0298 µM)

Structure (SMILES): CCCC1CC(c2cnc(C3CS/C(=C(/C#N)n4ccnc4)S3)c(Cl)c2)=NO1 (stereo not drawn) [Compound No. 6, (E)-2-{4-[3-chloro-5-(5-propyl-4,5-dihydroisoxazol-3-yl)pyridin-2-yl]-1,3-dithiolan-2-ylidene}-2-(1H-imidazol-1-yl)acetonitrile]
- MIC [1]: 10 ng/mL (≈ 0.0231 µM)
- MIC [2]: 10 ng/mL (≈ 0.0231 µM)
- MIC [3]: 10 ng/mL (≈ 0.0231 µM)
- MIC [4]: 5 ng/mL (≈ 0.0116 µM)

Structure (SMILES): CCOC(=O)Nc1cnc(C2CS/C(=C(/C#N)n3cncn3)S2)c(F)c1 (stereo not drawn) [Compound No. 10, ethyl (E)-(6-{2-[cyano(1H-1,2,4-triazol-1-yl)methylene]-1,3-dithiolan-4-yl}-5-fluoropyridin-3-yl)carbamate]
- MIC [1]: 50 ng/mL (≈ 0.127 µM)
- MIC [2]: 10 ng/mL (≈ 0.0255 µM)
- MIC [3]: 10 ng/mL (≈ 0.0255 µM)
- MIC [4]: 25 ng/mL (≈ 0.0637 µM)

Structure (SMILES): COC(=O)Nc1cnc(C2CS/C(=C(/C#N)n3ccnc3)S2)c(Cl)c1 (stereo not drawn) [Compound No. 15, methyl (E)-(5-chloro-6-{2-[cyano(1H-imidazol-1-yl)methylene]-1,3-dithiolan-4-yl}pyridin-3-yl)carbamate]
- MIC [1]: 2.5 ng/mL (≈ 0.00635 µM)
- MIC [2]: 10 ng/mL (≈ 0.0254 µM)
- MIC [3]: 10 ng/mL (≈ 0.0254 µM)
- MIC [4]: 5 ng/mL (≈ 0.0127 µM)

Structure (SMILES): CCO/N=C/c1cnc(C2CS/C(=C(/C#N)n3ccnc3)S2)c(Cl)c1 (stereo not drawn) [Compound No. 25, (E)-2-(4-{3-chloro-5-[(E)-(ethoxyimino)methyl]pyridin-2-yl}-1,3-dithiolan-2-ylidene)-2-(1H-imidazol-1-yl)acetonitrile]
- MIC [1]: 0.6 ng/mL (≈ 0.00153 µM)
- MIC [2]: ≤ 1 ng/mL
- MIC [3]: ≤ 1 ng/mL
- MIC [4]: 2.5 ng/mL (≈ 0.00638 µM)

Structure (SMILES): N#C/C(=C1/SCC(c2ncc(/C(N)=N/OCc3ccccc3)cc2Cl)S1)n1ccnc1 (stereo not drawn) [Compound No. 27, (Z)—N′-(benzyloxy)-5-chloro-6-{(E)-2-[cyano(1H-imidazol-1-yl)methylene]-1,3-dithiolan-4-yl}nicotinimidamide]
- MIC [1]: 1.3 ng/mL (≈ 0.00277 µM)
- MIC [2]: ≤ 1 ng/mL
- MIC [3]: ≤ 1 ng/mL
- MIC [4]: 5 ng/mL (≈ 0.0107 µM)

Structure (SMILES): C=Cc1cnc(C2CS/C(=C(/C#N)n3ccnc3)S2)c(Cl)c1 (stereo not drawn) [compound 3]
- minimum inhibitory concentration against various fungi (MIC) C. albicans [1]: 100 ng/mL (≈ 0.288 µM)
- minimum inhibitory concentration against various fungi (MIC) T. rubrum [2]: ≤1 ng/mL
- minimum inhibitory concentration against various fungi (MIC) T. mentagrophytes [3]: ≤1 ng/mL
- minimum inhibitory concentration against various fungi (MIC) A. fumigatus [4]: 2.5 ng/mL (≈ 0.00721 µM)

Structure (SMILES): N#CCOc1cnc(C2CS/C(=C(/C#N)n3ccnc3)S2)c(Cl)c1 (stereo not drawn) [compound 4]
- minimum inhibitory concentration against various fungi (MIC) C. albicans [1]: 1000 ng/mL (≈ 2.66 µM)
- minimum inhibitory concentration against various fungi (MIC) T. rubrum [2]: 10 ng/mL (≈ 0.0266 µM)
- minimum inhibitory concentration against various fungi (MIC) T. mentagrophytes [3]: 10 ng/mL (≈ 0.0266 µM)
- minimum inhibitory concentration against various fungi (MIC) A. fumigatus [4]: 5 ng/mL (≈ 0.0133 µM)

Structure (SMILES): COC(=O)Nc1cnc(C2CS/C(=C(/C#N)n3cncn3)S2)c(Cl)c1 (stereo not drawn) [compound 7]
- minimum inhibitory concentration against various fungi (MIC) C. albicans [1]: 10 ng/mL (≈ 0.0253 µM)
- minimum inhibitory concentration against various fungi (MIC) T. rubrum [2]: ≤1 ng/mL
- minimum inhibitory concentration against various fungi (MIC) T. mentagrophytes [3]: 10 ng/mL (≈ 0.0253 µM)
- minimum inhibitory concentration against various fungi (MIC) A. fumigatus [4]: 5 ng/mL (≈ 0.0127 µM)

Structure (SMILES): CCOC(=O)Nc1cnc(C2CS/C(=C(/C#N)n3cncn3)S2)c(Cl)c1 (stereo not drawn) [compound 11]
- minimum inhibitory concentration against various fungi (MIC) C. albicans [1]: 10 ng/mL (≈ 0.0245 µM)
- minimum inhibitory concentration against various fungi (MIC) T. rubrum [2]: ≤1 ng/mL
- minimum inhibitory concentration against various fungi (MIC) T. mentagrophytes [3]: 10 ng/mL (≈ 0.0245 µM)
- minimum inhibitory concentration against various fungi (MIC) A. fumigatus [4]: 5 ng/mL (≈ 0.0122 µM)

Structure (SMILES): N#C/C(=C1/SCC(c2ncc(NC(=O)OCc3ccc(F)cn3)cc2Cl)S1)n1cncn1 (stereo not drawn) [compound 73]
- C. albicans (MIC) ([1]; Table 23, 35° C. for 24 hr): 10 ng/mL
- A. fumigatus (MIC) ([4]; Table 23, 35° C. for 48 hr): 10 ng/mL

Structure (SMILES): N#C/C(=C1/SCC(c2ncc(NC(=O)OCc3ccc(F)nc3)cc2Cl)S1)n1cncn1 (stereo not drawn) [compound 74]
- C. albicans (MIC) ([1]; Table 23, 35° C. for 24 hr): 10 ng/mL
- A. fumigatus (MIC) ([4]; Table 23, 35° C. for 48 hr): 10 ng/mL

Structure (SMILES): CCOC(=O)Nc1cnc([C@@H]2CS/C(=C(/C#N)n3cncn3)S2)c(Cl)c1 [compound 79]
- C. albicans (MIC) ([1]; Table 23, 35° C. for 24 hr): 5 ng/mL
- A. fumigatus (MIC) ([4]; Table 23, 35° C. for 48 hr): 5 ng/mL

Structure (SMILES): N#C/C(=C1/SC[C@@H](c2ncc(NC(=O)OCC3CC3)cc2Cl)S1)n1cncn1 [compound 92]
- C. albicans (MIC) ([1]; Table 23, 35° C. for 24 hr): 0.63 ng/mL
- A. fumigatus (MIC) ([4]; Table 23, 35° C. for 48 hr): 2.5 ng/mL

Structure (SMILES): CCCOC(=O)Nc1cnc([C@@H]2CS/C(=C(/C#N)n3cncn3)S2)c(Cl)c1 [compound 94]
- C. albicans (MIC) ([1]; Table 23, 35° C. for 24 hr): 2.5 ng/mL
- A. fumigatus (MIC) ([4]; Table 23, 35° C. for 48 hr): 2.5 ng/mL

Structure (SMILES): N#C/C(=C1/SC[C@@H](c2ncc(NC(=O)OCc3ccccc3)cc2Cl)S1)n1cncn1 [compound 100]
- C. albicans (MIC) ([1]; Table 23, 35° C. for 24 hr): 0.63 ng/mL
- A. fumigatus (MIC) ([4]; Table 23, 35° C. for 48 hr): 2.5 ng/mL

Structure (SMILES): N#C/C(=C1/SC[C@@H](c2ncc(NC(=O)OCc3ccccc3)cc2F)S1)n1cncn1 [compound 106]
- C. albicans (MIC) ([1]; Table 23, 35° C. for 24 hr): 1.25 ng/mL
- A. fumigatus (MIC) ([4]; Table 23, 35° C. for 48 hr): 5 ng/mL

Structure (SMILES): CCCOC(=O)Nc1cnc([C@@H]2CS/C(=C(/C#N)n3cncn3)S2)c(F)c1 [compound 110]
- C. albicans (MIC) ([1]; Table 23, 35° C. for 24 hr): 10 ng/mL
- A. fumigatus (MIC) ([4]; Table 23, 35° C. for 48 hr): 5 ng/mL

Structure (SMILES): N#C/C(=C1/SC[C@@H](c2ncc(NC(=O)OCC3CC3(F)F)cc2Cl)S1)n1cncn1 (stereo partly drawn) [compound 130]
- C. albicans (MIC) ([1]; Table 24, 35° C. for 24 hr): 2.5 ng/mL
- A. fumigatus (MIC) ([4]; Table 24, 35° C. for 48 hr): 5 ng/mL

Structure (SMILES): N#C/C(=C1/SC[C@@H](c2ncc(NC(=O)OCC3CC3(F)F)cc2F)S1)n1cncn1 (stereo partly drawn) [compound 131]
- C. albicans (MIC) ([1]; Table 24, 35° C. for 24 hr): 10 ng/mL
- A. fumigatus (MIC) ([4]; Table 24, 35° C. for 48 hr): 10 ng/mL

Structure (SMILES): N#C/C(=C1/SC[C@@H](c2ncc(NC(=O)OCC3(F)CC3)cc2Cl)S1)n1cncn1 [compound 155]
- C. albicans (MIC) ([1]; Table 25, 35° C. for 24 hr): 2.5 ng/mL
- A. fumigatus (MIC) ([4]; Table 25, 35° C. for 48 hr): 10 ng/mL
